1 compound from patent publication US20200009135A1, “THERAPEUTIC APPLICATIONS OF MALT1 INHIBITORS” (MEDIVIR AB, priority 2017, published 2020) can be followed below.

Structures are written as SMILES.

Data set [1] in a line: Follow-up 5 day cell growth assay WSU-NHL (CC50). In kind it is cell-based. As to conditions: human, WSU-NHL cells.
The test system of data set [2] is CMV-specific (NLV+) CD8+ Teff cells expressing IFNγ or TNFα. The data set can be described thus: Human whole blood stimulated with (MTTE)3-CMV vaccine. The settings on record: 4 μM with 120 nM (MTTE)3-CMV vaccine, 6 hours, three donors. In kind it is cell-based. The procedure:
Freshly drawn whole blood from healthy volunteers (2 mL) in a tube was incubated under rotation at 37° C. for 6 hours. […]. After 2 hours Brefeldin-A was added to allow intra-cellular analysis of cytokines (IFNγ and TNFα) by flow-cytometry. Antigen-specific CD8+ T-cells were identified by fluorescence-conjugated tetrameric complexes of HLA-A2 molecules loaded with the NLV peptide epitope ([…]) of CMV pp65.

Data set [3] relates to CD4+FoxP3+CD25+ cell induction. Briefly: Development of human T-regulatory cells from naive CD4 T cells (FoxP3+CD25+ induction). In kind it is cell-based. The settings on record: 3 donors, 0.4 μM, 0.4 μM and 4.0 μM. The procedure:
Naïve CD4 T cell sorting and stimulation for regulatory T cell development A flat-bottom 48 well plate was coated with 250 μl of purified functional grade anti-human CD3 at 2 μg/ml in PBS. The plate was sealed and incubated at 37° C. for one hour. Peripheral blood mononuclear cells (PBMC) were isolated from human leucocyte reduction system cones by differential density centrifugation using Ficoll-PLUS (GE Healthcare). Cells were washed three times in RPMI+1% HI-FCS+1% penicillin/streptomycin (P/S) (1% RPMI), then resuspended at a concentration of 200×10^6/ml of 1% RPMI. An aliquot of cells was set aside for single colour controls, and the sample was stained at a dilution of 1:20 with anti-human CD4, anti-human CD45RA, anti-human CD25, and anti-human CD127 (antibodies from BioLegend and eBioscience) for 20 minutes on ice. Following the incubation, the stained PBMC were washed and resuspended at 50×10^6/ml in PBS+1% HI-FCS. Cells were sorted on a BD […] high speed cell sorter for the phenotype CD4+CD45RA+CD127+CD25-. Following the sort, cells were resuspended at 4×10^6/ml in pre-warmed cRPMI containing […] human IL-2 (final concentration 100 U/ml). […]
Staining Regulatory T Cell Cultures Induced regulatory T cell cultures were washed and counted. […]
CD4+ naïve T cells cultured for 10 days were analysed for their expression of FoxP3 and CD25. […]

Data set [4] relates to MB49 mouse bladder cancer. The data set can be described thus: MB49 mouse bladder cancer model, Treg and Teff cells by flow cytometry. The settings on record: C57BL/6 mice. In kind it is in vivo. The procedure: Evaluation of Treg and Teff cell numbers was performed by flow cytometry. From a tumour sample (resected piece or biopsy), tumour cells and TILs are dispersed into single cell suspension. Cells are then washed with PBS and stained by antibodies. Samples were stained with antibodies to identify T-cell subpopulations; CD3-BV421 (Biolegend 100228), CD8-FITC (Biolegend 100706), CD4-PE (Biolegend 116005), CD25-PerCP Cy5.5 (Biolegend 101912, clone 3C7), for 15 minutes at room temperature, followed by addition of erythrocyte lysis buffer (cat no. 349202, BD BioSciences, Franklin Lakes, N.J., USA) for 8 minutes. Cells were permeabilized with FoxP3 fix/Perm (cat no. 421401, Biolegend San Diego, Calif., USA), washed with FoxP3 Perm buffer (Cat no. 421402, Biolegend) and stained with an Alexa Fluor® 647 labelled FoxP3 antibody (Cat no. 320013, Biolegend) according to the manufacturer's instructions. The cells were washed twice in PBS with 1% BSA and analyzed on a FACSCanto II (BD Biosciences). Data analysis was performed using FlowJo software (TreeStar, Ashland, Oreg., USA). For intracellular staining of cytokines, inclusion of transport inhibitors e.g. Monensin or Brefeldin A.
The murine bladder urothelial carcinoma cell line Mouse Bladder (MB)-49 is a C57BL/6-derived cell line cultured at 37 C and 5% CO2 in DMEM+GlutaMax supplemented with 10% FBS, 0.1 mM sodium pyruvate, 100 U/ml Penicillin-Streptomycin. For determining the effects of MALT1 inhibitor on the presence of T-effector and T-regulatory cells in vivo, 3×10^5 MB49 cells were injected s.c. on the right flank of female C57BL/6 mice. […] As reference 200 μg of anti-CD25 antibody (clone PC61) in 100 μL PBS was administered i.v. on day 8 and 11. The levels of Treg and Teff cells were analyzed by flow cytometry in the tumour (T) and in tumour-draining lymph nodes (TDLN) on day 12.
A general note: Flow cytometry measures light scatter and fluorescence of single cells or particles in a stream.

The subject of data set [5] is CMV-specific (NLV+) CD8+ Teff cells expressing IFNγ. The data set can be described thus: Human whole blood loop assay with CMV lysate. As to conditions: 4 μM, 6 hours, alone and in combination with CMV lysate 1 μg/ml. In kind it is cell-based. The procedure:
Each blood loop contained 2 mL of freshly taken human whole blood from HLA-A2+ and CMV+ donors.
Freshly drawn whole blood from healthy volunteers (2 mL) in a tube was incubated under rotation at 37° C. for 6 hours. […] After 2 hours Brefeldin-A was added to allow intra-cellular analysis of cytokines (IFNγ and TNFα). Antigen-specific CD8+ T-cells were identified by fluorescence-conjugated tetrameric complexes of HLA-A2 molecules loaded with the NLV peptide epitope ([…]) of CMV pp65,

Data set [6] relates to panel of human cancer cell lines. The data set can be described thus: Human cancer cell line panel (Oncolead), GI50, 72 hours. In kind it is cell-based.
Setting [7] is: p.o. once daily day 8-11, two doses, analysed day 12.

As to `CO[C@@H](C)c1c(NC(=O)Nc2cnc(-n3nccn3)c(Cl)c2)cnc2cc(Cl)nn12` [Example 2, (S)-1-(5-chloro-6-(2H-1,2,3-triazol-2-yl)pyridin-3-yl)-3-(2-chloro-7-(1-methoxyethyl)pyrazolo[1,5-a]pyrimidin-6-yl)urea], the CC50 at 5 days in data set [1] is 77 µM. Moreover, in data set [2], the “percentage of activated antigen-specific IFNγ+ and TNFα+ CD8+ T cells” value is recorded as “increase”. Also, the “generation of a Treg phenotype and function” value in data set [3] (highest degree of inhibition with 4.0 μM) is “inhibit”. In data set [3] (IL-2+TGFβ, 10 days, highest concentration most effective), the “CD4+FoxP3+CD25+ cell induction” value is reported as “robust inhibition”. For the same compound, the “amount of CD8/CD25 double positive cells (Teff) in TDLN” value in data set [4] (p.o. once daily day 8-11, analysed day 12) is given as “not reduced”. Further, in data set [4] (setting [7]), the “percentage of FOXP3 positive cells (Treg) out of CD3/CD4 double positive cells in tumour” value is “reduced, in a dose-dependent manner” and the “percentage of FOXP3 positive cells (Treg) out of CD3/CD4 double positive cells in tumour-draining lymph nodes” value is reported as “reduced, in a dose-dependent manner”. Besides, the “activated antigen-specific IFNγ+CD8+ T cells” value in data set [5] is “increase”. The “antiproliferative effect on the majority of cell lines tested” value in data set [6] (81 solid and 12 hematological cancer cell lines, 50 μM to 0.05 nM) is given as “essentially no antiproliferative effect”. This compound had a GI50 in data set [6] (Homo sapiens, WSU-NHL cell line, not confirmed in follow-up assay) of less than 1 µM.

As usually defined, the CC50 is the concentration at which the toxic effect on the cells reaches its halfway point. Higher therefore signals lower toxicity to the cells. The term GI50 denotes the concentration giving 50% growth inhibition. Read a high GI50 as less potent growth inhibition.
